Test results reported in ChEMBL document CHEMBL3739302, “Synthesis of 5-trifluoromethyl-2-sulfonylpyridine PPARβ/δ antagonists: Effects on the affinity and selectivity towards PPARβ/δ” (Bioorg Med Chem, 2016).
Active and inactive are the calls of the source. No cut-off for these calls is given here.

Assays:
[1] = biological target: T1, Peroxisome proliferator-activated receptor alpha (Homo sapiens) (UniProt Q07869); experiment: Binding affinity to GST-PPAR-alpha LBP (unknown origin) at 1 uM by TR-FRET assay
T1 sequence (whole entry): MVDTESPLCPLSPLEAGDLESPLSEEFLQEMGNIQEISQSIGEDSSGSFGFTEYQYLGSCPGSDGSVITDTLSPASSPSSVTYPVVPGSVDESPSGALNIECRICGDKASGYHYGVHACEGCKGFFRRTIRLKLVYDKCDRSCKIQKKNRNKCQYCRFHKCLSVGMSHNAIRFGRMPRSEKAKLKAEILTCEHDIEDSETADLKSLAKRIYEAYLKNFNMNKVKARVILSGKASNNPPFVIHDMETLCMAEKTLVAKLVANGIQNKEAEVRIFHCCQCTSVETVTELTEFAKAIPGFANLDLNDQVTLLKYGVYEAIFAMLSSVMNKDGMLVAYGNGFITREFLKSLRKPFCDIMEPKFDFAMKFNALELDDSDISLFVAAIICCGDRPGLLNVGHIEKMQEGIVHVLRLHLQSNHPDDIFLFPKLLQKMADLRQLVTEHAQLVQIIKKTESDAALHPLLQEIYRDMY

[2] = biological target: T2, Peroxisome proliferator-activated receptor delta (Homo sapiens) (UniProt Q03181); experiment: Binding affinity to GST-PPAR-beta/delta LBP (unknown origin) at 1 uM after 1 hr by TR-FRET assay
T2 sequence (whole entry): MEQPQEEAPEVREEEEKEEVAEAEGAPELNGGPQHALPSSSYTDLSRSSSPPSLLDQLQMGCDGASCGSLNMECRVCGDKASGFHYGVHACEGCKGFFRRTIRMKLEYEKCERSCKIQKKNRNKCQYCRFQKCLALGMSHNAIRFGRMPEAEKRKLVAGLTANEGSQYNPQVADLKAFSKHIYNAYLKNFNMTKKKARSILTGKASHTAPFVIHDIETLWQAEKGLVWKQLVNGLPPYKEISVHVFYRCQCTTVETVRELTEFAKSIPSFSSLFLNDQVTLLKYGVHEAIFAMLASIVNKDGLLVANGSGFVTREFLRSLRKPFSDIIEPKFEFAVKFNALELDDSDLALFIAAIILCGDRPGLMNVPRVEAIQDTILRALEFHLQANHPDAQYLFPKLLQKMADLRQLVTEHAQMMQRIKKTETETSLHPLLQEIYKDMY

[3] = biological target: T3, Peroxisome proliferator-activated receptor gamma (Homo sapiens) (UniProt P37231); experiment: Binding affinity to GST-PPAR-gamma LBP (unknown origin) at 1 uM after 1 hr by TR-FRET assay
T3 sequence (whole entry): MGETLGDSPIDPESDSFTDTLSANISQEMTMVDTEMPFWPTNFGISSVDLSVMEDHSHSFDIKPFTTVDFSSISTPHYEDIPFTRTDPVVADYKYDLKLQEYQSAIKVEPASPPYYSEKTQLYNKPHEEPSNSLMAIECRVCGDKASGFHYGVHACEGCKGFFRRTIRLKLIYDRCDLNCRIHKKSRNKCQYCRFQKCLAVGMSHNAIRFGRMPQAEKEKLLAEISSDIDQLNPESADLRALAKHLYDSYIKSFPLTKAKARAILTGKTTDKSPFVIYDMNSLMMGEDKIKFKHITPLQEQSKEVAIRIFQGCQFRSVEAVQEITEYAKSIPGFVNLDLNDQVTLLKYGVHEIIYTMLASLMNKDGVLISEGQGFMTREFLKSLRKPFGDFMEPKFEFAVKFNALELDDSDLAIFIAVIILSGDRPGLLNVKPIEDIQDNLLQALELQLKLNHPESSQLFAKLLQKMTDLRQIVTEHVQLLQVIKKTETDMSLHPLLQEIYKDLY

[4] = biological target: T4, Peroxisome proliferator-activated receptor delta (Homo sapiens, UniProt Q03181); experiment: Binding affinity to GST-PPAR-beta/delta LBP (unknown origin) after 20 mins by TR-FRET assay
T4 sequence (Q03181 whole entry): T2 sequence (whole entry)

[5] = biological target: T4, Peroxisome proliferator-activated receptor delta; experiment: Binding affinity to GST-PPAR-beta/delta LBP (unknown origin) after 40 mins by TR-FRET assay
[6] = biological target: T4, Peroxisome proliferator-activated receptor delta; experiment: Binding affinity to GST-PPAR-beta/delta LBP (unknown origin) after 1 hr by TR-FRET assay
[7] = biological target: T4, Peroxisome proliferator-activated receptor delta; experiment: Binding affinity to GST-PPAR-beta/delta LBP (unknown origin) after 2 hrs by TR-FRET assay
[8] = biological target: T4, Peroxisome proliferator-activated receptor delta; experiment: Binding affinity to GST-PPAR-beta/delta LBP (unknown origin) after 3 hrs by TR-FRET assay
[9] = biological target: T1, Peroxisome proliferator-activated receptor alpha (Homo sapiens); experiment: Binding affinity to GST-PPAR-alpha LBP (unknown origin) at 1 and 10 uM after 1 hr by TR-FRET assay
[10] = biological target: T3, Peroxisome proliferator-activated receptor gamma (Homo sapiens); experiment: Binding affinity to GST-PPAR-gamma LBP (unknown origin) at 10 uM after 1 hr by TR-FRET assay
[11] = biological target: T1, Peroxisome proliferator-activated receptor alpha (Homo sapiens); experiment: Binding affinity to GST-PPAR-alpha LBP (unknown origin) at 1 and 10 uM after 24 hrs by TR-FRET assay
[12] = biological target: T3, Peroxisome proliferator-activated receptor gamma (Homo sapiens); experiment: Binding affinity to GST-PPAR-gamma LBP (unknown origin) at 1 uM after 24 hrs by TR-FRET assay
[13] = biological target: T3, Peroxisome proliferator-activated receptor gamma (Homo sapiens); experiment: Binding affinity to GST-PPAR-gamma LBP (unknown origin) at 10 uM after 24 hrs by TR-FRET assay
[14] = biological target: T4, Peroxisome proliferator-activated receptor delta; experiment: Binding affinity to GST-PPAR-beta/delta LBP (unknown origin) after 24 hrs by TR-FRET assay
[15] = biological target: T1, Peroxisome proliferator-activated receptor alpha (Homo sapiens); experiment: Binding affinity to GST-PPAR-alpha LBP (unknown origin) at 1 uM after 2 hrs by TR-FRET assay

SMILES: O=C(NCCS(=O)(=O)c1ccc(C(F)(F)F)cn1)c1cccc2ncccc12
- Activity [1]: Active

SMILES: CC(C)(C)C(=O)NCCS(=O)(=O)c1ccc(C(F)(F)F)cn1
- Activity [1]: Active

SMILES: O=C(NCCS(=O)(=O)c1ccc(C(F)(F)F)cn1)c1ccc2ccccc2c1
- Activity [2]: Active
- Activity [1]: Active
- Activity [3]: Active
- IC50 [4]: 1930 nM
- IC50 [5]: 930 nM
- IC50 [6]: 751 nM
- IC50 [7]: 448 nM
- IC50 [8]: 320 nM
- Activity [9]: inactive
- Activity [10]: Active
- Activity [11]: inactive
- Activity [12]: Active
- Activity [13]: Active

SMILES: O=C(NCCS(=O)(=O)c1ccc(C(F)(F)F)cn1)c1cnc2ccccc2c1
- Activity [3]: Active
- IC50 [5]: 17600 nM
- IC50 [6]: 6820 nM
- IC50 [7]: 2320 nM
- IC50 [8]: 1430 nM
- IC50 [14]: 241 nM
- Activity [9]: inactive
- Activity [10]: Active
- Activity [11]: inactive
- Activity [12]: Active
- Activity [13]: Active

SMILES: CN1CCN(c2ccc(/C=C(\C#N)c3ccccc3Br)cc2)CC1
- IC50 [4]: 29 nM
- IC50 [5]: 30.4 nM
- IC50 [6]: 32.7 nM
- IC50 [7]: 37 nM
- IC50 [8]: 40.1 nM
- IC50 [14]: 48 nM

SMILES: O=C(NCCS(=O)(=O)c1ccc(C(F)(F)F)cn1)c1ccc2ccccc2n1
- Activity [1]: Active

SMILES: O=C(NCCS(=O)(=O)c1ccc(C(F)(F)F)cn1)c1ccc(F)cc1
- Activity [2]: Active
- Activity [1]: Active
- Activity [3]: Active

SMILES: O=C(NCCS(=O)(=O)c1ccc(C(F)(F)F)cn1)c1ccc2c(c1)CCCC2
- Activity [3]: Active
- IC50 [4]: 4220 nM
- IC50 [5]: 1960 nM
- IC50 [6]: 1530 nM
- IC50 [7]: 907 nM
- IC50 [8]: 598 nM
- IC50 [14]: 271 nM
- Activity [9]: inactive
- Activity [10]: Active
- Activity [11]: inactive
- Activity [12]: Active
- Activity [13]: Active

SMILES: O=C(NCCS(=O)(=O)c1ccc(C(F)(F)F)cn1)c1cncc2ccccc12
- Activity [1]: Active

SMILES: O=C(NCCS(=O)(=O)c1ccc(C(F)(F)F)cn1)c1cccc2cccnc12
- Activity [1]: Active

SMILES: O=C(NCCS(=O)(=O)c1ccc(C(F)(F)F)cn1)c1cc2ccccc2cn1
- Activity [1]: Active

SMILES: COc1ccc(C(=O)NCCS(=O)(=O)c2ccc(C(F)(F)F)cn2)cc1
- Activity [2]: Active
- Activity [1]: Active

SMILES: O=C(NCCS(=O)(=O)c1ccc(C(F)(F)F)cn1)c1cccc2ccccc12
- Activity [2]: Active
- Activity [1]: Active
- Activity [3]: Active

SMILES: O=C(NCCS(=O)(=O)c1ccc(C(F)(F)F)cn1)c1cccnc1
- Activity [1]: Active

SMILES: O=C(CCCS(=O)(=O)c1ccc(C(F)(F)F)cn1)c1ccc2ccccc2c1
- Activity [1]: Active

SMILES: O=C(NCCS(=O)(=O)c1ccc(C(F)(F)F)cn1)c1ccc2ccncc2c1
- Activity [1]: Active
- Activity [3]: Active

SMILES: O=C(NCCS(=O)(=O)c1ccc(C(F)(F)F)cn1)c1cccc2cnccc12
- Activity [1]: Active

SMILES: CC(C)C(=O)NCCS(=O)(=O)c1ccc(C(F)(F)F)cn1
- Activity [1]: Active

SMILES: O=C(NCCS(=O)(=O)c1ccc(C(F)(F)F)cn1)c1cccc2c1CCCC2
- Activity [1]: Active
- Activity [3]: Active

SMILES: O=C(NCCS(=O)(=O)c1ccc(C(F)(F)F)cn1)c1ccc(Cl)cc1
- Activity [3]: Active
- IC50 [4]: 1330 nM
- IC50 [5]: 825 nM
- IC50 [6]: 648 nM
- IC50 [7]: 284 nM
- IC50 [8]: 233 nM
- IC50 [14]: 1.21 nM
- Activity [9]: inactive
- Activity [10]: Active
- Activity [11]: inactive
- Activity [13]: Active

SMILES: O=C(NCCS(=O)(=O)c1ccc(C(F)(F)F)cn1)c1ccc2cnccc2c1
- Activity [1]: Active

SMILES: O=C(NCCS(=O)(=O)c1ccc(C(F)(F)F)cn1)c1ccccc1
- Activity [1]: Active

SMILES: O=C(c1ccc2ccccc2c1)N(CCS(=O)(=O)c1ccc(C(F)(F)F)cn1)Cc1ccccc1
- Activity [1]: Active

SMILES: O=C(NCCS(=O)(=O)c1ccc(C(F)(F)F)cn1)c1nccc2ccccc12
- Activity [1]: Active
- Activity [3]: Active

SMILES: O=C(NCCS(=O)(=O)c1ccc(C(F)(F)F)cn1)c1cccc2ccncc12
- Activity [1]: Active

SMILES: O=C(COc1ccccc1)NCCS(=O)(=O)c1ccc(C(F)(F)F)cn1
- Activity [1]: Active

SMILES: O=C(CCCS(=O)(=O)c1ccc(C(F)(F)F)cn1)c1cccc2ccccc12
- Activity [1]: Active

SMILES: Cc1nc(-c2ccc(C(F)(F)F)cc2)sc1C(=O)NCCS(=O)(=O)c1ccc(C(F)(F)F)cn1
- Activity [3]: Active
- IC50 [4]: 949 nM
- IC50 [5]: 581 nM
- IC50 [6]: 423 nM
- IC50 [7]: 301 nM
- IC50 [8]: 284 nM
- Activity [9]: inactive
- Activity [11]: inactive

SMILES: CN(CCS(=O)(=O)c1ccc(C(F)(F)F)cn1)C(=O)c1ccc2ccccc2c1
- Activity [1]: Active
- Activity [3]: Active

SMILES: O=C(NCCS(=O)(=O)c1ccc(C(F)(F)F)cn1)c1ccnc2ccccc12
- Activity [1]: Active
- Activity [15]: Active

SMILES: O=C(NCCS(=O)(=O)c1ccc(C(F)(F)F)cn1)c1ccc2cccnc2c1
- Activity [1]: Active

SMILES: O=C(NCCS(=O)(=O)c1ccc(C(F)(F)F)cn1)C12CC3CC(CC(C3)C1)C2
- Activity [1]: Active

SMILES: CCN(CCS(=O)(=O)c1ccc(C(F)(F)F)cn1)C(=O)c1ccc2ccccc2c1
- Activity [1]: Active

SMILES: O=C(NCCS(=O)(=O)c1ccc(C(F)(F)F)cn1)c1ccc2ncccc2c1
- Activity [1]: Active
